Here are results for 32 molecules from patent US20220009906A1, “ISOINDOLIN-1-ONE DERIVATIVES USEFUL AS GRK2 INHIBITORS” (priority 2020, published 2022).

Where only a bound is given, the exact number is not on record here.

The target of this test is T1, GRK2 (Homo sapiens, UniProt P25098).
T1 sequence (P25098 1-689): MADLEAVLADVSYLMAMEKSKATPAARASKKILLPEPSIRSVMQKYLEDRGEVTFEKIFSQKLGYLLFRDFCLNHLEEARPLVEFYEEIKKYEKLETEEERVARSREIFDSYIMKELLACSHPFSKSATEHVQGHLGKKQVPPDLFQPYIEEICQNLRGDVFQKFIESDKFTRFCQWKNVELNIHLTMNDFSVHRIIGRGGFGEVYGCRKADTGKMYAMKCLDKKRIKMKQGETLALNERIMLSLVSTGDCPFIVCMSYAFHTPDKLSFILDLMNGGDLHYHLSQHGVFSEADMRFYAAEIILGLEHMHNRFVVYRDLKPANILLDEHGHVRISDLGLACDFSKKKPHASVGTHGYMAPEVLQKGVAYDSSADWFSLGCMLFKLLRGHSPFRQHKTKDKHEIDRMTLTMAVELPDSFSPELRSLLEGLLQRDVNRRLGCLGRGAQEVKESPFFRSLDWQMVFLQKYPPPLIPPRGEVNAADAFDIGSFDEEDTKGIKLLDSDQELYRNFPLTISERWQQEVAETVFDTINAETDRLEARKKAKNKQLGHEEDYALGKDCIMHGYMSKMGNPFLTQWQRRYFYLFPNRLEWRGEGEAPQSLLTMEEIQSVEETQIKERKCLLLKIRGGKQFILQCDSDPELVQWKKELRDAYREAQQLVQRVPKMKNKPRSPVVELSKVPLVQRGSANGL
The experiment in a line: hGRK2 LANCE Ultra In Vitro Assay. Type of test: biochemical. The following applies: Biological Example 1 GRK2 Lancer IC50 (μM), 10 nM GRK2; 30 or 600 μM ATP (not stated which); multiple measurements listed individually. How it is done: hGRK2 LANCE Ultra In Vitro Assay
G-protein coupled receptor kinases (GR Kinases) desensitize activated G-protein coupled receptors (GPCRs), by phosphorylation of cytoplasmic loops or carboxyl-terminal tails of GPCRs. GRK2 is one of the 6 different GR kinases and is implicated in heart failure and diabetes.
This assay is sensitive and requires as low as 10 nM enzyme, in a total volume of 10 μL. In addition, the ATP concentration can be varied over a broad range, without interfering with the assay or changing the assay condition. […] Testing inhibitors routinely at both high and low ATP concentrations also enables identification of potential non-ATP competitive inhibitors.
Paroxetine was used as the reference compound in this assay.
Test compounds were dissolved in DMSO at 1 mM and were 3-fold serial diluted. The compound DMSO solutions were then added (100 nL) into a plate well using an acoustic dispenser. To each well was then added 20 nM GRK2 (5 μL) in assay buffer (20 mM HEPES, pH 7.5, 10 mM MgCl2, 0.001% Tween-20®). The plate was sealed and centrifuged at 1000 rpm for 1 min. The plate and wells containing a mixture of GRK2 and test compound were incubated at ambient temperature for 30 min (prior to initializing the enzymatic reaction).
Enzyme reactions were initiated by the addition of 4.9 μL Substrates/Eu-Ab mix to each well. […] Final concentrations of reagents in the assays were as follows: 20 mM HEPES, pH 7.5; 10 mM MgCl2; 0.001% Tween-20® (w/v); 30 or 600 μM ATP; 200 nM ULight-peptide; 4 nM Eu-Ab; 10 nM GRK2; and 1% DMSO.
The plates were sealed and centrifuged at 1000 rpm for 1 min. For reactions at low ATP concentration (30 μM), reaction mixtures were incubated at ambient temperature for 120 min. For reactions at high ATP concentration (600 μM), reaction mixtures were incubated at ambient temperature for 60 min.
The enzyme reactions were quenched by addition of 10 μL of 12 mM EDTA in 1× LANCE detection solution to each well. The plates were then incubated at ambient temperature for 30 min. Time-resolved fluorescence signal of reactions were read on an EnVision or PHERAstar plate reader with the following parameters: Excitation wavelength=337 nm; emission wavelength (donor)=620 nm; emission wavelength (acceptor)=665 nm.
The raw HTRF data were converted to % active as follows:
% active=(sample−NC)/(PC−NC)*100
where NC is the mean of negative control (reactions without GRK2), and PC is the mean of positive control (reactions with GRK2 but without inhibitor). IC50 values were determined from a 4-parameter fit, using the following equation:
Y=Bottom+(Top−Bottom)/(1+10^((Log IC50−X)*Hill slope))
where X=log10 of the compound concentration.

For `COc1cccc([C@@H](C)N2Cc3c(cc(-c4cn[nH]c4)cc3N3CCNCC3)C2=O)c1` [Compound 155, (R)-2-(1-(3-methoxyphenyl)ethyl)-4-(piperazin-1-yl)-6-(1H-pyrazol-4-yl)isoindolin-1-one], the IC50 worked out at 0.007 µM. Molecule `CC(c1cccc(Oc2ccccc2)c1)N1Cc2ccc(-c3cn[nH]c3)cc2C1=O` (centres unmarked) [Compound 104] yielded an IC50 above 11 µM. The molecule `O=C1c2cc(-c3cn[nH]c3)ccc2CN1Cc1cccc(OC2COC2)c1` [Compound 91] came in with an IC50 of 0.116 µM. Consider `O=C(Nc1ccc(F)c(F)c1)c1cccc(CN2Cc3ccc(-c4cn[nH]c4)cc3C2=O)c1` [Compound 34], for which it took 0.006 µM to reach half-maximal inhibition (IC50).

Regarding `COc1cccc([C@@H](C)N2Cc3c(cc(-c4cn[nH]c4)cc3-c3cncc(F)c3)C2=O)c1` [Compound 120, (R)-4-(5-fluoropyridin-3-yl)-2-(1-(3-methoxyphenyl)ethyl)-6-(1H-pyrazol-4-yl)isoindolin-1-one], the half-maximal inhibitory concentration (IC50) is 0.009 µM. In turn, `COc1cccc([C@@H](C)N2Cc3ccc(-c4cn[nH]c4)c(F)c3C2=O)c1` [Compound 30, 7-fluoro-2-[(1R)-1-(3-methoxyphenyl)ethyl]-6-(1H-pyrazol-4-yl)isoindolin-1-one] came in with a 50% inhibitory concentration (IC50) below 0.005 µM. For the molecule `COc1cccc(C(CO)N2Cc3c(cc(-c4cn[nH]c4)cc3-c3cncc(F)c3)C2=O)c1` (centres unmarked) [Compound 152, 4-(5-fluoropyridin-3-yl)-2-(2-hydroxy-1-(3-methoxyphenyl)ethyl)-6-(1H-pyrazol-4-yl)isoindolin-1-one], the IC50 is 0.017 µM.

The molecule `COc1cccc([C@@H](C)N2Cc3ccc(-n4cn[nH]c4=O)cc3C2=O)c1` [Compound 40, (R)-2-(1-(3-methoxyphenyl)ethyl)-6-(5-oxo-1,5-dihydro-4H-1,2,4-triazol-4-yl)isoindolin-1-one] yielded an IC50 of 0.115 µM. For the molecule `CCOc1cccc(C(C(=O)O)N2Cc3ccc(-c4ccncc4)cc3C2=O)c1` (centres unmarked) [Compound 77], the IC50 was above 20 µM. As to `COc1cccc(CN2Cc3ccc(-c4ccnc5[nH]ccc45)cc3C2=O)c1` [Compound 50], the midpoint of inhibition, the IC50, lay at 0.334 µM.

`COc1cccc([C@@H](C)N2Cc3c(cc(-c4cn[nH]c4)cc3-c3ccnc(C(C)(C)C)c3)C2=O)c1` [Compound 154, (R)-4-(2-(tert-butyl)pyridin-4-yl)-2-(1-(3-methoxyphenyl)ethyl)-6-(1H-pyrazol-4-yl)isoindolin-1-one] had an IC50 of 0.932 µM. Regarding `CCOc1cccc([C@@H](C)N2Cc3ccc(-c4ncccn4)cc3C2=O)c1` [Compound 171], the IC50 stood at 0.104 µM. `COc1cccc(C(CO)N2Cc3c(cc(-c4cn[nH]c4)cc3-c3cccnc3)C2=O)c1` (centres unmarked) [Compound 142, 2-(2-hydroxy-1-(3-methoxyphenyl)ethyl)-6-(1H-pyrazol-4-yl)-4-(pyridin-3-yl)isoindolin-1-one] yielded an IC50 of 0.008 µM. Molecule `COc1cccc([C@@H](C)N2Cc3c(cc(-c4cn[nH]c4)cc3-c3ccncc3)C2=O)c1` [Compound 121, (R)-2-(1-(3-methoxyphenyl)ethyl)-6-(1H-pyrazol-4-yl)-4-(pyridin-4-yl)isoindolin-1-one] showed an IC50 of 0.01 µM.

`O=C1c2cc(-c3cn[nH]c3)ccc2CN1Cc1cccc(-n2cccn2)c1` [Compound 119] had a half-maximal inhibitory concentration (IC50) of 0.113 µM. `COc1cccc(CN2C(=O)c3cc(-c4cn[nH]c4)ccc3C23CCOCC3)c1` [Compound 82, 2-(3-methoxybenzyl)-5-(1H-pyrazol-4-yl)-2′,3′,5′,6′-tetrahydrospiro[isoindoline-1,4′-pyran]-3-one] registered a half-inhibitory concentration (IC50) of 0.007 µM.

`COc1cccc(CN2C(=O)c3cc(-c4cn[nH]c4)ccc3C23CCCC3N)c1` (centres unmarked) [Compound 123, 2-amino-2′-(3-methoxybenzyl)-5′-(1H-pyrazol-4-yl)spiro[cyclopentane-1,1′-isoindolin]-3′-one] registered an IC50 of 0.015 µM. Turning to `CCOc1cccc([C@H](C(=O)O)N2Cc3ccc(-c4cn[nH]c4)cc3C2=O)c1` [Compound 74], the half-maximal inhibitory concentration (IC50) stood at 4.2 µM.

The molecule `COc1cccc([C@@H](C)N2Cc3c(cc(-c4cn[nH]c4)cc3-c3cccc(O)c3)C2=O)c1` [Compound 139, (R)-4-(3-hydroxyphenyl)-2-(1-(3-methoxyphenyl)ethyl)-6-(1H-pyrazol-4-yl)isoindolin-1-one] came in with a concentration for half-maximal inhibition (IC50) of 0.033 µM. In the case of `COc1cccc(CN2Cc3ccc(-n4cn[nH]c4=O)cc3C2=O)c1` [Compound 44, 2-(3-methoxybenzyl)-6-(5-oxo-1,5-dihydro-4H-1,2,4-triazol-4-yl)isoindolin-1-one], the concentration for half-maximal inhibition (IC50) worked out at 0.382 µM. The figure for `COc1cccc([C@@H](C)N2Cc3c(cc(-c4cn[nH]c4)cc3-c3cc(C)nc(C)c3)C2=O)c1` [Compound 132, (R)-4-(2,6-dimethylpyridin-4-yl)-2-(1-(3-methoxyphenyl)ethyl)-6-(1H-pyrazol-4-yl)isoindolin-1-one] is 0.005 µM; for `O=C1c2cc(-c3cn[nH]c3)ccc2CN1Cc1cccs1` [Compound 28, 6-(1H-Pyrazol-4-yl)-2-(thiophen-2-ylmethyl)isoindolin-1-one] it is 0.091 µM; for `COc1ccnc(CN2Cc3ccc(-c4cn[nH]c4)cc3C2=O)c1` [Compound 105] it is 0.071 µM. Turning to `COc1cccc([C@@H](C)N2Cc3c(cc(-c4cn[nH]c4)cc3-c3cccnc3N)C2=O)c1` [Compound 125, (R)-4-(2-aminopyridin-3-yl)-2-(1-(3-methoxyphenyl)ethyl)-6-(1H-pyrazol-4-yl)isoindolin-1-one], the IC50 came out at 0.022 µM. The result for `CCOc1cccc(CN2C(=O)c3cc(-n4cn[nH]c4=O)ccc3C2(C)C)c1` [Compound 45, 2-(3-ethoxybenzyl)-3,3-dimethyl-6-(5-oxo-1,5-dihydro-4H-1,2,4-triazol-4-yl)isoindolin-1-one] reads 1.62 µM. `CCOc1cccc([C@@H](C)N2Cc3ccc(-c4cn[nH]c4)c(F)c3C2=O)c1` [Compound 48] yielded an IC50 of 0.01 µM.

`COc1cccc([C@@H](C)N2C(=O)c3cc(-c4cn[nH]c4)ccc3C23CCC(O)C3)c1` (mixture of isomers) [Compound 173] displayed an IC50 of 0.092 µM. For `COc1cccc(CN2C(=O)c3cc(-c4cn[nH]c4)ccc3C23CCC(C(N)=O)C3)c1` (centres unmarked) [Compound 108, 2′-(3-methoxybenzyl)-3′-oxo-5′-(1H-pyrazol-4-yl)spiro[cyclopentane-1,1′-isoindoline]-3-carboxamide], half-maximal inhibition (IC50) required 0.004 µM. `COc1cccc(CN2Cc3cc(F)c(-c4ccnc(N)n4)cc3C2=O)c1` [Compound 36] showed a half-inhibitory concentration (IC50) of 0.241 µM.

`COc1cccc(CN2C(=O)c3cc(-c4cn[nH]c4)ccc3C23CCC2NC(=O)OC23)c1` (centres unmarked) [Compound 150, 2′-(3-methoxybenzyl)-5′-(1H-pyrazol-4-yl)-3a,4,5,6a-tetrahydrospiro[cyclopenta[d]oxazole-6,1′-isoindoline]-2,3′(3H)-dione]: the 50% inhibitory concentration (IC50) was found to be 0.013 µM.

Molecule `COc1cccc(C(CO)N2Cc3ccc(-c4ccnc(N)n4)cc3C2=O)c1` (centres unmarked) [Compound 64, 6-(2-aminopyrimidin-4-yl)-2-(2-hydroxy-1-(3-methoxyphenyl)ethyl)isoindolin-1-one] returned a 50% inhibitory concentration (IC50) of 0.047 µM. The molecule `COc1cccc([C@@H](C)N2C(=O)c3cc(-c4cn[nH]c4)ccc3C23CCCC3)c1` [Compound 122, (R)-2′-(1-(3-methoxyphenyl)ethyl)-5′-(1H-pyrazol-4-yl)spiro[cyclopentane-1,1′-isoindolin]-3′-one] had a half-maximal inhibitory concentration (IC50) of 1.18 µM.
